The IC50 is the concentration needed to halve the response being measured. A lower IC50 goes with greater potency in that assay.

SMILES strings stand for the structures. Where a name gives a salt, the structure may show the parent alone.

Here are results for 19 molecules from patent US6482849B1, “Inhibitors of α4β1 mediated cell adhesion” (Tanabe Seiyaku Co., Ltd., priority 1997, dated 2002).

The target in experiment [1] is T1, α4β1 integrin (Jurkat T-cell adhesion to IL-1 stimulated endothelial cell monolayers) (Homo sapiens, UniProt P05556+P13612).
T1 construct: a T-cell line, Jurkat, known to express the α4β1 integrin; host or cells: Jurkat T-cell line
The experiment is described as follows: Jurkat-Endothelial Cell Adhesion Assay (Jurkat EC). Conditions: Jurkat cells on IL-1 stimulated HUVEC monolayers. The format is cell-based. The method, then:
The following assay established the activity of the present compounds in inhibiting β1-mediated cell adhesion in a representative in vitro system. This assay measures the adhesive interactions of a T-cell line, Jurkat, known to express the α4β1 integrin, to endothelial monolayers in the presence of test compounds. The test compounds were added in increasing concentrations to T-cells and then the T-cell compound mixture was added to IL-1 stimulated endothelial cell monolayers. The plates were incubated, washed and the percentage of attached cells was quantitated. […] Human umbilical vein endothelial cells were purchased from Clonetics (San Diego, Calif.) at passage number 2. The cells were grown on 0.5% porcine skin gelatin pre-coated flasks (Sigma, St. Louis Mo.) in EGM-UV media (Clonetics, San Diego, Calif.) supplemented with 10% fetal bovine serum. Cells are refed every 2-3 days reaching confluence by day 4 to 6. […] The endothelial cells are not used following passage 6. Am The T-cell line Jurkat was obtained from American Type Tissue Culture Collection (Rockville, Md.) and the cells were cultured in RPMI containing 10% fetal calf serum. The cells were washed twice in Hank's Balanced Salt Solution (HBSS) and resuspended in Dulbecco's […] Eagle's Media (DMEM) containing 2.5 mg/ml Human Serum Albumin (HSA). Jurkat cells (1×10^6 cells/ml) were stained with 10 ng/ml BCECF-AM z z (Molecular Probes, Eugene, Ore.)) in HBSS without phenol red. The cells were loaded with BCECF for 60 minutes in the dark at 37° C., washed 2 times, and resusupended in DMEM-HSA solution.
Confluent endothelial monolayers, grown in 96-well tissue culture plates, were stimulated for 4 hr. at 37° C. with 0.1 ng/ml (˜50 U/ml) recombinant IL-1 (Amgen, Thousand Oaks, Calif.). Following this incubation, the monolayers were washed twice with HBSS and 0.1 ml of DMEM-HSA solution was added. Jurkat cells (5×10^5 cells) were combined with the appropriate concentration of the test compound and 0.1 ml of the Jurkat cell-compound mixture was added to the endothelial cell monolayers. Generally, 100, 20, 5 and 1.25 μM compound concentrations were tested. […] The plates were placed on ice for 5 minutes to allow for Jurkat cell settling and the plates were incubated at 37° C. for 20 minutes. Following this incubation, the monolayers were washed twice with PBS containing 1 mM calcium chloride and 1 mM magnesium chloride and the plates were read using a Millipore Cytofluor 2300 (Marlboro, Mass.). Fluorescence in each well was measured as Arbitrary Fluorescence Units and percent adhesion in the absence of compound was adjusted to 100% and the % adhesion in the presence of compound was calculated. Monolayers were also fixed in 3% paraformaldehyde and evaluated microscopically to verify the adhesion. This procedure is a modification of a previously published method (Cardarelli et al., J. Biol. Chem. 269:18668-18673 (1994)).

Experiment [2] concerns the target T2, α4β1 integrin (Jurkat cell adhesion to immobilized CS-1 derived peptide CLHPGEILDVPST) (Homo sapiens, UniProt P05556+P13612).
T2 construct: 100 μl of Jurkat cells (2.5×10^6 cells/ml) in DMEM plus BSA; endogenous in cells; host or cells: Jurkat T-cell line
The experiment is described as follows: Jurkat-CS-1 Assay. Format: cell-based. Conditions: Jurkat cells on CS-1 peptide coated plates. The method, then: The CS-1 derived peptide, CLHPGEILDVPST, and the scrambled control peptide, CLHGPIELVSDPT, were synthesized on a Beckman 990 synthesizer using t-Boc methodology. The peptides were immobilized onto microtiter plates using the heterobifunctional crosslinker 3-(2-pyridyldithio)propionic acid N-hydroxysuccinimide ester (SPDP) as reported by Pierschbacher et al., Proc. Natl. Acad. USA, 80:1224-1227 (1983). Microtiter plates were coated with 20 μg/ml HSA for 2 hr. at room temperature, washed once with PBS and derivatized with 10 μg/ml SPDP for 1 hr. After washing, 100 μl of a 100 μg/ml cysteine containing peptide solution which had been recently dissolved was added to the wells and allowed to crosslink to the plates overnight at 4° C. Unbound peptide was removed from plates by washing with PBS. To block non-reacted sites, the plates are coated with 100 μl of a 2.5 mg/ml BSA solution in PBS for 1 hr. at 37° C. 100 μl of Jurkat cells (2.5×10^6 cells/ml) in DMEM plus BSA (2.5 mg/ml) was mixed with an appropriate concentration of the compound to be tested and the mixture was added to peptide coated dishes and incubated for 1 hr. at 37° C. Generally 100, 20, 5 and 1.25 μM concentrations of the compound were tested.
Following this incubation the plates were washed once with PBS and the attached cells were fixed with 3% paraformaldehyde in PBS and stained with 0.5% toluidine blue in 3.7% formaldehyde. The cells were stained overnight at room temperature and the optical density at 590 nm of toluidine blue stained cells was determined using a vertical pathway spectrophotometer to quantitate attachment (VMAX Kinetic Microplate Reader, Molecular Devices, Menlo Park, Calif.). This procedure is a modification of a previously published method (Cardarelli et al, J. Biol. Chem., 269:18668-18673 (1994) and Cardarelli et al, Proc. Natl. Acad. Sci. USA, 83:2647-2651 (1986)).

T2 sequence (P13612 34-1032): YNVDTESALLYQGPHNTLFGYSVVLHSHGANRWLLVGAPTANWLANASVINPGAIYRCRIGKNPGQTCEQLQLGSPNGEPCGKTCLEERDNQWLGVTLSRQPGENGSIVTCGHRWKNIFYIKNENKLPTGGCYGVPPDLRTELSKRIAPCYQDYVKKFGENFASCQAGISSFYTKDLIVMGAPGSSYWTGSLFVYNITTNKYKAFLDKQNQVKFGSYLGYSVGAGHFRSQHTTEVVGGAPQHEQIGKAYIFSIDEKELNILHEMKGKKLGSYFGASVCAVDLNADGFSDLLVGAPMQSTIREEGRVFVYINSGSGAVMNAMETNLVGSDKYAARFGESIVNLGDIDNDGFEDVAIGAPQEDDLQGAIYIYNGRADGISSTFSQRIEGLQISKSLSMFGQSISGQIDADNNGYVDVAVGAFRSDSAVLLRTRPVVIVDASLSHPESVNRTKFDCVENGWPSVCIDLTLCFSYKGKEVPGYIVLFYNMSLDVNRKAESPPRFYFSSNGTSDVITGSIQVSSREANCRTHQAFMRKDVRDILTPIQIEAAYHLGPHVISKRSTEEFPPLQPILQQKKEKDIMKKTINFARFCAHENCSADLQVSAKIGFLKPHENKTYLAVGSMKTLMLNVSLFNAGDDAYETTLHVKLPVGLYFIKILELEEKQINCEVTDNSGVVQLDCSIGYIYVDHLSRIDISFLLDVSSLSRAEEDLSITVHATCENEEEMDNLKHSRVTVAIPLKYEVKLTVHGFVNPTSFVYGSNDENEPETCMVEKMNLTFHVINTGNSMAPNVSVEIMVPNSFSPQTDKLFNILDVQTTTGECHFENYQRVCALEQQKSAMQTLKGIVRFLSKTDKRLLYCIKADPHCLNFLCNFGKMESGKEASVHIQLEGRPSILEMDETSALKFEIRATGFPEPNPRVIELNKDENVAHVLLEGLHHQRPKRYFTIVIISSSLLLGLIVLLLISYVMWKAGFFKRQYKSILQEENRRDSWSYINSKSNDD
T2 sequence (P05556 21-798): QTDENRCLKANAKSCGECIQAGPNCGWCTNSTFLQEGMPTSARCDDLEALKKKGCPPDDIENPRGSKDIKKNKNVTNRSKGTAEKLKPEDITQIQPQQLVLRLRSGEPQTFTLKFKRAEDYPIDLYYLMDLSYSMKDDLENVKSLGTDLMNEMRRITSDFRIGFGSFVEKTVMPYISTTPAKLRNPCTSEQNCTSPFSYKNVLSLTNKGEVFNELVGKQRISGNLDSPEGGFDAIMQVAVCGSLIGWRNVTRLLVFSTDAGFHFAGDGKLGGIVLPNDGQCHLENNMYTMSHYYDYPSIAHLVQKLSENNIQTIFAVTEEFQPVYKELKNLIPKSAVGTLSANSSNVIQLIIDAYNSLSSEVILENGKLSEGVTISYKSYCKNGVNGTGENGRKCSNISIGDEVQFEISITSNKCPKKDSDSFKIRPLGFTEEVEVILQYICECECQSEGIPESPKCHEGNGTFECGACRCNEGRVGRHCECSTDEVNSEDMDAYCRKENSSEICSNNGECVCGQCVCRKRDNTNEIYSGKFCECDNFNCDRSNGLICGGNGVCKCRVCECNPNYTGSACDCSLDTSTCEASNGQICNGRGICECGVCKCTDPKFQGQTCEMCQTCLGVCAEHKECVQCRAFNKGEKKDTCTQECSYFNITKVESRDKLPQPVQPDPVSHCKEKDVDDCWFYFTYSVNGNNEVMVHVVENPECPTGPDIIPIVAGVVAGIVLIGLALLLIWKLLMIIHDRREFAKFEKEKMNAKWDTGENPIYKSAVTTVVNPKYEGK
T1 sequence (P13612 34-1032): as the sequence (P13612 34-1032) above
T1 sequence (P05556 21-798): as the sequence (P05556 21-798) above

`CC1(C)[C@@H](C(=O)N[C@@H](Cc2ccc(NC(=O)c3c(Cl)cccc3Cl)cc2)C(=O)O)CC[C@@]1(C)C(=O)N[C@H](CCCCN)C(=O)O` (relative stereo) [Example 179]: the IC50 in experiment [1] was 5 to 10 µM; in experiment [2], at most 0.08 µM.

As to `C[C@H](NC(=O)[C@]1(C)CC[C@H](C(=O)N[C@@H](Cc2ccc(OCc3c(Cl)cccc3Cl)cc2)C(=O)O)C1(C)C)C(=O)O` (relative stereo) [Example 188, [1S-[1α, 3α(R)]]-N-[[3-[[(1-Carboxyethyl)amino]carbonyl]-2,2,3-trimethylcyclopentyl]carbonyl]-O-[(2,6-dichlorophenyl)methyl]-L-tyrosine], the IC50 in experiment [1] fell in the range of 0.8 to 5 µM; in experiment [2] it was 0.08 to 0.5 µM.

Take `CC1(C)[C@@H](C(=O)N[C@@H](Cc2ccc(OCc3c(Cl)cccc3Cl)c(Cl)n2)C(=O)O)CC[C@@]1(C)C(=O)O` (relative stereo) [Example 194, [1S-[1α(R*),3α]]-α-[[(3-Carboxy-2,2,3-trimethylcyclopentyl)carbonyl]amino]-6-chloro-5-[(2,6-dichlorophenyl)methoxy]-2-pyridinepropanoic acid]: the figures for the IC50 in experiment [1] and in experiment [2] were 0.8 to 5 µM and 0.08 to 0.5 µM, respectively.

For the molecule `C[C@H](NC(=O)[C@]1(C)CC[C@H](C(=O)N[C@@H](Cc2ccc(NC(=O)c3c(Cl)cccc3Cl)cc2)C(=O)O)C1(C)C)C(=O)O` (relative stereo) [Example 211, [1S-[1α,3α(S*)]]-N-[[3-[[(1-Carboxyethyl)amino]carbonyl]-2,2,3-trimethylcyclopentyl]carbonyl]-4-[(2,6-dichlorobenzoyl)amino]-L-phenylalanine], the values for the IC50 in experiment [1] and in experiment [2] were at most 0.8 µM and at most 0.08 µM, respectively.

Turning to `CC1(C)[C@@H](C(=O)N[C@@H](Cc2ccc(NC(=O)c3c(Cl)cccc3Cl)cc2)C(=O)O)CC[C@@]1(C)C(=O)N1CCC[C@@H]1C(N)=O` (relative stereo) [Example 212, [1S-[1α,3α(S*)]]-N-[3-[[2-(Aminocarbonyl)-1-pyrrolidinyl]carbonyl]-2,2,3-trimethylcyclopentyl]-carbonyl]-4-[(2,6-dichlorobenzoyl)amino]-L-phenylalanine monolithium salt], the IC50 in experiment [1] fell in the range of 5 to 10 µM; in experiment [2] it was 0.08 to 0.5 µM.

`CC1(C)[C@@H](C(=O)N[C@@H](Cc2ccc(NC(=O)c3c(Cl)cccc3Cl)cc2)C(=O)O)CC[C@@]1(C)C(=O)N1CCC[C@H]1C(N)=O` (relative stereo) [Example 213, [1S-[1α,3α(R*)]]-N-[3-[[2-(Aminocarbonyl)-1-pyrrolidinyl]carbonyl]-2,2,3-trimethylcyclopentyl]-carbonyl]-4-[(2,6-dichlorobenzoyl)amino]-L-phenylalanine monosodium salt]: the IC50 in experiment [1] lay within 0.8 to 5 µM; in experiment [2], 0.08 to 0.5 µM.

Consider `CNC(=O)[C@@H]1CCCN1C(=O)[C@]1(C)CC[C@H](C(=O)N[C@@H](Cc2ccc(NC(=O)c3c(Cl)cccc3Cl)cc2)C(=O)O)C1(C)C` (relative stereo) [Example 215, [1S-[1α,3α(R*)]]-N-[3-[[2-[(Methylamino)carbonyl]-1-pyrrolidinyl]carbonyl]-2,2,3-trimethyl-cyclopentyl]carbonyl]-4-[(2,6-dichlorobenzoyl)amino]-L-phenylalanine monosodium salt], for which the IC50 in experiment [1] is at most 0.8 µM; in experiment [2], 0.08 to 0.5 µM.

Consider `CC1(C)[C@@H](C(=O)O)CC[C@@]1(C)NC(=O)N[C@]1(C)CC[C@H](C(=O)N[C@@H](Cc2ccc(NC(=O)c3c(Cl)cccc3Cl)cc2)C(=O)O)C1(C)C` (relative stereo) [Example 236, [1S-[1α,3α(1S*,3R*)-N-]]-N-[[3[[[(3-Carboxy-1,2,2-trimethylcyclopentyl)amino]carbonyl]-amino]-2,2,3-trimethylcyclopentyl]carbonyl]-4-[(2,6-dichlorobenzoyl)-amino]-L-phenylalanine], for which the IC50 in experiment [1] was at most 0.8 µM; in experiment [2], 0.08 to 0.5 µM.

With `CC1(C)[C@@H](C(=O)N[C@H](Cc2ccc(OCc3c(Cl)cccc3Cl)cn2)C(=O)O)CC[C@@]1(C)C(=O)O` (relative stereo) [Example 254, [1S-[1α(R*),3α]]-α-[[(3-Carboxy-2,2,3-trimethylcyclopentyl)carbonyl]amino]-3-[(2,6-dichlorophenyl)methoxy]-6-pyridinepropanoic acid], the results for the IC50 in experiment [1] and in experiment [2] were 0.8 to 5 µM and 0.08 to 0.5 µM, respectively.

As to `CC1(C)[C@@H](C(=O)N[C@@H](Cc2ccc(OCc3ccc4ccccc4c3)cc2)C(=O)O)CC[C@@]1(C)C(=O)O` [Example 10], the results for the IC50 in experiment [1] and in experiment [2] were 0.8 to 5 µM and 0.08 to 0.5 µM, respectively.

Consider `CC1(C)[C@@H](C(=O)N[C@@H](Cc2cn(Cc3ccc(Cl)cc3Cl)cn2)C(=O)O)CC[C@@]1(C)C(=O)O` [Example 24], for which the IC50 is 0.8 to 5 µM in experiment [1] and 0.08 to 0.5 µM in experiment [2].

`CC1(C)[C@@H](C(=O)N[C@@H](Cc2cn(Cc3c(Cl)cccc3Cl)cn2)C(=O)O)CC[C@@]1(C)C(=O)O` [Example 26]: the IC50 in experiment [1] lay in the range of 0.8 to 5 µM; in experiment [2], 0.5 to 1 µM.

With `CC1(C)[C@@H](C(=O)N[C@@H](Cc2cn(Cc3ccc(Cl)cc3)cn2)C(=O)O)CC[C@@]1(C)C(=O)O` [Example 28], the IC50 in experiment [1] was 0.8 to 5 µM; in experiment [2], 0.08 to 0.5 µM.

With `COc1ccc(Cn2cnc(C[C@H](NC(=O)[C@H]3CC[C@@](C)(C(=O)O)C3(C)C)C(=O)O)c2)cc1` [Example 31], in experiment [1], the IC50 fell in the range of 5 to 10 µM.

In the case of `CC1(C)[C@@H](C(=O)N[C@@H](Cc2cn(Cc3ccccc3C(F)(F)F)cn2)C(=O)O)CC[C@@]1(C)C(=O)O` [Example 36], the IC50 in experiment [1] lay within 5 to 10 µM; in experiment [2], 0.5 to 1 µM.

`CC1(C)[C@@H](C(=O)N[C@@H](Cc2cn(Cc3ccc4ccccc4c3)cn2)C(=O)O)CC[C@@]1(C)C(=O)O` [Example 38]: the results for the IC50 in experiment [1] and in experiment [2] were 0.8 to 5 µM and 0.08 to 0.5 µM, respectively.

Take `COC(=O)[C@H](Cc1ccc(NC(=O)c2c(Cl)cccc2Cl)cc1)NC(=O)[C@H]1CC[C@@](C)(C(=O)O)C1(C)C` [Example 53, (1S-cis)-N-[(3-Carboxy-2,2,3-trimethylcyclopentyl)carbonyl]-4-[(2,6-dichlorobenzoyl)amino]-L-phenylalanine methyl ester]: the IC50 in experiment [1] lay in the range of 0.8 to 5 µM; in experiment [2] it was 0.5 to 1 µM.

For `COC(=O)[C@H](Cc1ccc(NC(=O)c2ccccc2C)cc1)NC(=O)[C@H]1CC[C@@](C)(C(=O)O)C1(C)C` [Example 137], in experiment [2], the IC50 fell in the range of 0.08 to 0.5 µM.

In the case of `CC1(C)[C@H](C(=O)N[C@@H](Cc2ccc(OCc3c(Cl)cccc3Cl)cc2)C(=O)O)CC[C@]1(C)C(=O)O` [Example 189, (1R-cis)-N-[(3-Carboxy-2,2,3-trimethylcyclopentyl)carbonyl]-O-[(2,6-dichlorophenyl)methyl]-L-tyrosine], the IC50 in experiment [1] was in the range of 0.8 to 5 µM.
